Results published in article PMC6271529, “Studies on the Anticonvulsant Activity and Influence on GABA-ergic Neurotransmission of 1,2,4-Triazole-3-thione-Based Compounds” (Molecules, 2014).
Where two headings read alike, the source gives them in different places. One block for each compound: values may come before it.

Columns and labels:
[1] = test system: maximal electroshock-induced seizures; experiment: Maximal electroshock-induced seizure (MES) test in mice; format: in vivo, mouse; conditions: for p/t, number of animals protected against MES-induced seizures / number tested / responders at 300 mg/kg: 300 mg/kg i.p.; for responders at 300 mg/kg / ED50: Mus musculus, ip; for responders at 300 mg/kg: read-out: percent of animals protected against MES-induced seizures; for PI (TD50/ED50): protective index; for onset of action: significant protection as early as 15 min after parenteral administration
Protocol: Additionally, all efforts were made to minimize animal suffering and to use only the number of animals necessary to produce reliable scientific data.
In the initial stage of the study, groups of eight mice were supplied with the compounds (administered intraperitoneally) in a dose of 300 mg/kg and then exposed to electrical impulse at fixed intervals (15, 30, 60, 120 min).
Each mouse was used only once.
Fresh drug solutions were prepared on each day of experimentation and administered at 15, 30, 60 and 120 min. before the initiation of maximal electroconvulsions. Electroconvulsions were produced by a current (0.2 s stimulus duration; 500 V, 50 Hz, fixed current intensity of 25 mA) delivered via ear-clip electrodes by a Rodent Shocker generator (constant-current stimulator Type 221, Hugo Sachs Elektronik, Freiburg, Germany). The criterion for the occurrence of seizure activity was the tonic hind limb extension. The animals were administered with a constant dose of 300 mg/kg of each of the examined compounds and were subjected to MES-induced seizures. […] The animals were administered with different doses of the tested compounds so as to obtain a variable percentage of protection against maximal electroconvulsions, allowing the construction of dose-response relationship lines for each examined compound administered i.p. at various pretreatment times, according to Litchfield and Wilcoxon. Each ED50 value represents the dose of the studied compounds that is required to protect 50% of the animals tested against MES-induced seizures.

GABAA receptors = experiment: Radioligand binding assay, [3H]muscimol, rat cerebral cortex; conditions: compound 1 × 10^−6 M, [3H]muscimol, rat cerebral cortex;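 note: low percentages indicate weak binding of the compound to the receptor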
Protocol: Binding experiments were conducted in 96-well microplates in a total volume of 200 μL of appropriate buffer. The reaction mixture included 50 μL solution of test compound, 50 μL of radioligand, and […] the tissue suspension. Rat cerebral cortex was used for each receptor. […] Radioligand binding data were analyzed using iterative curve fitting routines (GraphPAD/Prism, Version 3.0, San Diego, CA, USA). Ki values were calculated from the Cheng and Prusoff equation [36].

[2] = test system: benzodiazepine (BDZ)-binding sites; experiment: Radioligand binding assay, [3H]flunitrazepam, rat cerebral cortex; conditions: compound 1 × 10^−6 M;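 note: low percentages indicate weak binding of the compound to the site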
Protocol: Binding experiments were conducted in 96-well microplates in a total volume of 200 μL of appropriate buffer. The reaction mixture included 50 μL solution of test compound, 50 μL of radioligand, and […] the tissue suspension. Rat cerebral cortex was used for each receptor. The radioactivity was measured in MicroBeta TriLux 1450-liquid scintillation counter (PerkinElmer, Waltham, MA, USA). Radioligand binding data were analyzed using iterative curve fitting routines (GraphPAD/Prism, Version 3.0, San Diego, CA, USA). Ki values were calculated from the Cheng and Prusoff equation [36].

[3] = test system: motor performance in mice; experiment: Chimney test (motor performance impairment, acute adverse effects); conditions: i.p.
Protocol: Adult male Swiss mice (weighing 22–26 g) that were kept in colony cages with free access to food and tap water, housed under standardized housing conditions, were used. After seven days of adaptation to laboratory conditions, the animals were randomly assigned to experimental groups each comprised of eight mice. Each mouse was used only once. Procedures involving animals and their care were conducted in accordance with current European Community and Polish legislation on animal experimentation. The experimental protocols and procedures described in this manuscript were approved by the First Local Ethics Committee at the Medical University in Lublin and the Second Local Ethics Committee at the University of Life Sciences in Lublin and complied with the European Communities Council Directive of 24 November 1986 (86/609/EEC).
In this test, the animals had to climb backwards up a plastic tube (3 cm inner diameter, 30 cm length), and motor performance impairment was indicated by the inability of the mice to climb backward up the transparent tube within 60 s. […] To evaluate each TD50 value, at least four groups of animals (each group consisted of eight mice) injected with various doses of the appropriate compound were challenged with the chimney test. A dose-response relationship line was calculated on the basis of the percentage of mice showing motor deficits by means of the log-probit method according to Litchfield and Wilcoxon.

[4] = pretreatment time 120 min, mice
[5] = 0.25 h, pretreatment time 15 min, mice
[6] = 0.5 h, pretreatment time 30 min, mice
[7] = 1 h, pretreatment time 60 min, mice
[8] = 2 h, pretreatment time 120 min, mice
[9] = pretreatment time 15 min, mice, read-out: ED50 ± S.E. (MES test)
[10] = pretreatment time 30 min, mice, read-out: ED50 ± S.E. (MES test)
[11] = pretreatment time 60 min, mice, read-out: ED50 ± S.E. (MES test)
[12] = pretreatment time 120 min, mice, read-out: ED50 ± S.E. (MES test)
[13] = chimney TD50 / MES ED50, pretreatment time 15 min
[14] = chimney TD50 / MES ED50, pretreatment time 30 min
[15] = chimney TD50 / MES ED50, pretreatment time 60 min
[16] = chimney TD50 / MES ED50, pretreatment time 120 min

Structure (SMILES): S=c1[nH]nc(-c2ccc(Cl)cc2)n1-c1ccccc1Br [Compound 15a, 4-(2-Bromophenyl)-5-(4-chlorophenyl)-2,4-dihydro-3H-1,2,4-triazole-3-thione]
p/t, number of animals protected against MES-induced seizures / number tested ([1]; pretreatment time 15 min, mice): 6/8 | p/t, number of animals protected against MES-induced seizures / number tested ([1]; pretreatment time 30 min, mice): 8/8 | p/t, number of animals protected against MES-induced seizures / number tested ([1]; pretreatment time 60 min, mice): 8/8 | p/t, number of animals protected against MES-induced seizures / number tested [1, 4]: 7/8 | responders at 300 mg/kg [1, 5]: 75% | responders at 300 mg/kg [1, 6]: 100% | responders at 300 mg/kg [1, 7]: 100% | responders at 300 mg/kg [1, 8]: 87.5% | ED50 [1, 9]: 183 ± 25.1 mg/kg | ED50 [1, 10]: 105 ± 16.5 mg/kg | ED50 [1, 11]: 137 ± 19.9 mg/kg | ED50 [1, 12]: 176 ± 25 mg/kg | PI (TD50/ED50) [1, 13]: 1.5 | PI (TD50/ED50) [1, 14]: 2.4 | PI (TD50/ED50) [1, 15]: 1.8 | PI (TD50/ED50) [1, 16]: 1.4 | onset of action ([1]; MES, mice): quick onset of action | Percent of Specific Binding, GABAA (GABAA receptors): 8% | Percent of Specific Binding, BDZ [2]: 21% | melting point: 250 to 252 °C

Structure (SMILES): CCCC(CCC)C(=O)O [Valproate, Magnesium valproate]
ED50 [1, 10]: 217 ± 9.4 mg/kg | ED50 [1, 11]: 218 ± 18.9 mg/kg | ED50 [1, 12]: 247 ± 21.6 mg/kg | TD50 ± S.E. (chimney test) ([3]; pretreatment time 15 min): 363.3 ± 14.2 mg/kg | TD50 ± S.E. (chimney test) ([3]; pretreatment time 30 min): 372.9 ± 16.9 mg/kg | TD50 ± S.E. (chimney test) ([3]; pretreatment time 60 min): 417.3 ± 9.5 mg/kg | TD50 ± S.E. (chimney test) ([3]; pretreatment time 120 min): 512.3 ± 20.2 mg/kg

Percent of Specific Binding, GABAA (GABAA receptors): 21% | Percent of Specific Binding, BDZ [2]: 6% | melting point: 214 to 216 °C
Structure (SMILES): CSc1ccc(-n2c(-c3ccc(Cl)cc3)n[nH]c2=S)cc1 [Compound 17a, 5-(4-Chlorophenyl)-4-[4-(methylsulfanyl)phenyl]-2,4-dihydro-3H-1,2,4-triazole-3-thione]
p/t, number of animals protected against MES-induced seizures / number tested ([1]; pretreatment time 15 min, mice): 0/8 | p/t, number of animals protected against MES-induced seizures / number tested ([1]; pretreatment time 30 min, mice): 0/8 | p/t, number of animals protected against MES-induced seizures / number tested ([1]; pretreatment time 60 min, mice): 1/8 | p/t, number of animals protected against MES-induced seizures / number tested [1, 4]: 0/8 | responders at 300 mg/kg [1, 5]: 0% | responders at 300 mg/kg [1, 6]: 0% | responders at 300 mg/kg [1, 7]: 12.5% | responders at 300 mg/kg [1, 8]: 0%

Structure (SMILES): S=c1[nH]nc(-c2ccc(Cl)cc2)n1-c1ccc(Br)cc1 [Compound 16a, 4-(4-Bromophenyl)-5-(4-chlorophenyl)-2,4-dihydro-3H-1,2,4-triazole-3-thione]
p/t, number of animals protected against MES-induced seizures / number tested ([1]; pretreatment time 15 min, mice): 5/8 | p/t, number of animals protected against MES-induced seizures / number tested ([1]; pretreatment time 30 min, mice): 7/8 | p/t, number of animals protected against MES-induced seizures / number tested ([1]; pretreatment time 60 min, mice): 8/8 | p/t, number of animals protected against MES-induced seizures / number tested [1, 4]: 8/8 | responders at 300 mg/kg [1, 5]: 62.5% | responders at 300 mg/kg [1, 6]: 87.5% | responders at 300 mg/kg [1, 7]: 100% | responders at 300 mg/kg [1, 8]: 100% | ED50 [1, 9]: 272 ± 21.4 mg/kg | ED50 [1, 10]: 182 ± 44.3 mg/kg | ED50 [1, 11]: 153 ± 23.5 mg/kg | ED50 [1, 12]: 141 ± 25.1 mg/kg | time to peak of the anticonvulsant action ([1]; after i.p. administration, MES, mice): 120 min | PI (TD50/ED50) [1, 13]: 1.6 | PI (TD50/ED50) [1, 14]: 2.6 | PI (TD50/ED50) [1, 15]: 3.0 | PI (TD50/ED50) [1, 16]: 2.9 | onset of action ([1]; MES, mice): quick onset of action | Percent of Specific Binding, GABAA (GABAA receptors): 17% | Percent of Specific Binding, BDZ [2]: 24%

Percent of Specific Binding, GABAA (GABAA receptors): 8% | Percent of Specific Binding, BDZ [2]: 14% | melting point: 170 to 171 °C
Structure (SMILES): Fc1ccccc1-n1c(-c2cccc(Cl)c2)n[nH]c1=S [Compound 1a, 5-(3-Chlorophenyl)-4-(2-fluorophenyl)-2,4-dihydro-3H-1,2,4-triazole-3-thione]
p/t, number of animals protected against MES-induced seizures / number tested ([1]; pretreatment time 15 min, mice): 0/8 | p/t, number of animals protected against MES-induced seizures / number tested ([1]; pretreatment time 30 min, mice): 0/8 | p/t, number of animals protected against MES-induced seizures / number tested ([1]; pretreatment time 60 min, mice): 1/8 | p/t, number of animals protected against MES-induced seizures / number tested [1, 4]: 1/8 | responders at 300 mg/kg [1, 5]: 0% | responders at 300 mg/kg [1, 6]: 0% | responders at 300 mg/kg [1, 7]: 12.5% | responders at 300 mg/kg [1, 8]: 12.5%

Structure (SMILES): Fc1ccccc1-n1c(-c2ccc(Cl)cc2)n[nH]c1=S [Compound 12a, 5-(4-Chlorophenyl)-4-(2-fluorophenyl)-2,4-dihydro-3H-1,2,4-triazole-3-thione]
p/t, number of animals protected against MES-induced seizures / number tested ([1]; pretreatment time 15 min, mice): 6/8 | p/t, number of animals protected against MES-induced seizures / number tested ([1]; pretreatment time 30 min, mice): 6/8 | p/t, number of animals protected against MES-induced seizures / number tested ([1]; pretreatment time 60 min, mice): 7/8 | p/t, number of animals protected against MES-induced seizures / number tested [1, 4]: 7/8 | responders at 300 mg/kg [1, 5]: 75% | responders at 300 mg/kg [1, 6]: 75% | responders at 300 mg/kg [1, 7]: 87.5% | responders at 300 mg/kg [1, 8]: 87.5% | ED50 [1, 9]: 208 ± 25.3 mg/kg | ED50 [1, 10]: 186 ± 24.6 mg/kg | ED50 [1, 11]: 218 ± 21.7 mg/kg | ED50 [1, 12]: 209 ± 27.3 mg/kg | ED50 ([1]; pretreatment times 15, 30, 60, 120 min, read-out: ED50 (MES), range over pretreatment times): 186 to 218 mg/kg | PI (TD50/ED50) [1, 13]: 2.6 | PI (TD50/ED50) [1, 14]: 2.7 | PI (TD50/ED50) [1, 15]: 1.9 | PI (TD50/ED50) [1, 16]: 2.3 | onset of action ([1]; MES, mice): quick onset of action | Percent of Specific Binding, GABAA (GABAA receptors): 13% | Percent of Specific Binding, BDZ [2]: 18% | melting point: 240 to 242 °C

Percent of Specific Binding, GABAA (GABAA receptors): 21% | Percent of Specific Binding, BDZ [2]: 13%
Structure (SMILES): Cc1ccc(-n2c(-c3cccc(Cl)c3)nn(CN3CCN(c4ccc(F)cc4)CC3)c2=S)cc1 [Compound 24a, 5-(3-Chlorophenyl)-2-{[4-(4-fluorophenyl)piperazin-1-yl]methyl}-4-(4-methylphenyl)-2,4-dihydro-3H-1,2,4-triazole-3-thione]
p/t, number of animals protected against MES-induced seizures / number tested ([1]; pretreatment time 15 min, mice): 0/8 | p/t, number of animals protected against MES-induced seizures / number tested ([1]; pretreatment time 30 min, mice): 0/8 | p/t, number of animals protected against MES-induced seizures / number tested ([1]; pretreatment time 60 min, mice): 0/8 | p/t, number of animals protected against MES-induced seizures / number tested [1, 4]: 0/8 | responders at 300 mg/kg [1, 5]: 0% | responders at 300 mg/kg [1, 6]: 0% | responders at 300 mg/kg [1, 7]: 0% | responders at 300 mg/kg [1, 8]: 0%
